From patent US20260216359A1, “CYCLIC PEPTIDE-BASED LYSOSOME TARGETING DEGRADERS” (Wisconsin Alumni Research Foundation, priority 2023, published 2026)

Key:
α5β1 = α5β1 (Homo sapiens, UniProt P05556+P08648); conditions: Kapp et al., 2017; one range given for αvβ5, αvβ6, α5β1; cited from earlier work
EGFR = test: inhibition of Ctx-PEG12-cRGD-induced EGFR degradation in MCF7 cells, western blot; format: cell-based; conditions: BAF1 50 nM, CQ 10 uM, in the presence of 10 nM Ctx-PEG12-cRGD for 6h
Method: MCF7 cells were seeded at 70% confluence in a 24-well plate and incubated in 350 μL complete culture media overnight. Cells were pre-treated with free excess cRGD-azide with concentrations indicated in the figure at 4° C. for 1 h before incubating with 10 nm Ctx-PEG12-cRGD for 8 h. Cells were then harvested for western blot.
MCF7 cells were seeded at 70% confluence in a 24-well plate and incubated in 350 μL complete culture media overnight. Cells were treated with lysosomal degradation inhibitor Bafilomycin A1 (BAF1) at 50 nM and Chloroquine (CQ) at 10 uM in the presence of 10 nM Ctx-PEG12-cRGD for 6h.

anti-biotin-647 = test: lysosomal degradation of anti-biotin-647 in MCF7 cells, in gel fluorescence; format: cell-based; conditions: 25 nM Ab-cRGD and 50 nM anti-biotin-647 for 3 h, then 50 nM BAF1 for 3 h
Method: MCF7 cells were seeded in a 48-well plate at 70% confluence and maintained in 200 μL complete culture media. Next day, cells were incubated with 25 nM of Ab-cRGD and 50 nM of anti-biotin-647 for 3 h followed by three washes with PBS. Cells were then maintained in fresh media with or without 50 nM Bafilomycin A1 (BAF1) for another 3 h before harvested for in gel fluorescence analysis.

Chain of α5β1 (P08648 42-894 limits assumed): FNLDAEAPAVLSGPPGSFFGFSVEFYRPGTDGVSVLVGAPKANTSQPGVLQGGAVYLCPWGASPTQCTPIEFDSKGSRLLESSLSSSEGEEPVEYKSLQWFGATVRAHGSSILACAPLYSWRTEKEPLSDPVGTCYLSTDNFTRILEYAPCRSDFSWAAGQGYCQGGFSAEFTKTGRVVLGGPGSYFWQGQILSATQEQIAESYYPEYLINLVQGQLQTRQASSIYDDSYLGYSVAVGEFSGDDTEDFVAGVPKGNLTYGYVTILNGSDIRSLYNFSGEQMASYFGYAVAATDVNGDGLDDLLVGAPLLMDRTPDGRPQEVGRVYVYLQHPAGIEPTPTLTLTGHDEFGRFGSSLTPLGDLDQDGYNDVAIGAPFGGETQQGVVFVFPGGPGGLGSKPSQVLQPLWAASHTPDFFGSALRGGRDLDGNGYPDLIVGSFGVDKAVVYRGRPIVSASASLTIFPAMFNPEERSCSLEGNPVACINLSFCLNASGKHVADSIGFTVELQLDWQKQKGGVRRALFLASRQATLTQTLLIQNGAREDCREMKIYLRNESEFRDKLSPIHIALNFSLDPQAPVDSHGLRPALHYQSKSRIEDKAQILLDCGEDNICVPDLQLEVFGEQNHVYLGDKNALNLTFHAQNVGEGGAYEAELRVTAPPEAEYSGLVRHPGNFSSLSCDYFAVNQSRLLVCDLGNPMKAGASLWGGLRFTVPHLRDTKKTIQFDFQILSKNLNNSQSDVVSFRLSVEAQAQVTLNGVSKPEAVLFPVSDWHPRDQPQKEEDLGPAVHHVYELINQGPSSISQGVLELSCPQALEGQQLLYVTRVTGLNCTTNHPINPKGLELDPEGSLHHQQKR
Chain of α5β1 (P08648 895-995 partner limits assumed): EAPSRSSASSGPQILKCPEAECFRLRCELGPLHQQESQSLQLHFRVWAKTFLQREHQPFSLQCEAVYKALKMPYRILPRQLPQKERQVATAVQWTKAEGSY
Chain of α5β1 (P05556 21-728 limits assumed): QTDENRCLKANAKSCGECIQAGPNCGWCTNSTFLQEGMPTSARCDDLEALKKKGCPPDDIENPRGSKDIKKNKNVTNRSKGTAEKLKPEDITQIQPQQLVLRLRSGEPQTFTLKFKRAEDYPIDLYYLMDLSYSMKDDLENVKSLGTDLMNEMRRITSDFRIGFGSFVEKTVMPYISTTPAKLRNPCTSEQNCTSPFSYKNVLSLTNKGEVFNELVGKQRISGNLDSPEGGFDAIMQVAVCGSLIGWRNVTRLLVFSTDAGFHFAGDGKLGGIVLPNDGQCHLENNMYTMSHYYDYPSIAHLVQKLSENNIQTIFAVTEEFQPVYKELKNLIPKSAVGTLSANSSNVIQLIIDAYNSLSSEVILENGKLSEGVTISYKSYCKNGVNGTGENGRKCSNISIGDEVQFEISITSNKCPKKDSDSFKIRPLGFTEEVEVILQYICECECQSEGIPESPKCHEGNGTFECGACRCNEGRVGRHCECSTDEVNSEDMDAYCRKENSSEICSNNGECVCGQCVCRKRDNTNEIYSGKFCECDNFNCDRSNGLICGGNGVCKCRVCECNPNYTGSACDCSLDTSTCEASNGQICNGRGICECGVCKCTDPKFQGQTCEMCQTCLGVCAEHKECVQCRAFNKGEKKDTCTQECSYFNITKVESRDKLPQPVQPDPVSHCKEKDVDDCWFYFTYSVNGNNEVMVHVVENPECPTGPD

| Molecule | binding to α5β1 (α5β1) [nM] | inhibition of EGFR degradation by lysosomal degradation inhibitors (FIG. 16) (EGFR) | inhibition of lysosomal degradation of anti-biotin-647 (FIG. 14) (anti-biotin-647) |
| --- | --- | --- | --- |
| cyclo(Arg-Gly-Asp-D-Phe-Lys) [cRGD] | 50 to 350 |  |  |
| CO/C1=C\C(C)=C\[C@@H](C)[C@@H](O)[C@@H](C)C/C(C)=C/C=C/[C@H](OC)[C@@H]([C@@H](C)[C@@H](O)[C@H](C)[C@@]2(O)C[C@@H](O)[C@H](C)[C@@H](C(C)C)O2)OC1=O [Bafilomycin A1] |  | inhibition of EGFR degradation | inhibition of lysosomal degradation of anti-biotin-647 |
| CCN(CC)CCCC(C)Nc1ccnc2cc(Cl)ccc12 (stereo not shown) [Chloroquine] |  | inhibition of EGFR degradation |  |
